Results as given in the supplement of paper PMC6045584.
± gives the standard deviation of the averaged measurements.

How the values were obtained:
[1] = compound: COc1cc2ncnc(Nc3ccc(F)c(Cl)c3)c2cc1OCCCN1CCOCC1 [GEFITINIB]; assay: surviving fraction relative to DMSO-only wells; higher = less growth inhibition; conditions: exposure time: 5 days
In short: (§1)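 Log-phase tumour cell lines were seeded at 250–500 cells per well in 384-well plates. After 24 hours they were exposed continuously for five days to inhibitors at 0.5, 1, 5, 10, 50, 100, 500 and 1000 nM. Viability was read by CellTiter-Glo luminescence after 10 minutes at room temperature, and surviving fraction is luminescence normalised to the median of DMSO-only wells. Each line was screened three times and kept only if replicate Pearson r >0.7 and median Z' >0.3.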

[2] = compound: COCC[n+]1c2c(n(Cc3cnccn3)c1C)C(=O)c1ccccc1C2=O [YM155]; assay: as above; conditions: exposure time: 5 days
In short: as §1

Test System	surviving fraction ([1]; 0.5 nM)	surviving fraction ([1]; 1 nM)	surviving fraction ([1]; 5 nM)	surviving fraction ([1]; 10 nM)	surviving fraction ([1]; 50 nM)	surviving fraction ([1]; 100 nM)	surviving fraction ([1]; 500 nM)	surviving fraction ([1]; 1000 nM)	surviving fraction ([2]; 0.5 nM)	surviving fraction ([2]; 1 nM)	surviving fraction ([2]; 5 nM)	surviving fraction ([2]; 10 nM)	surviving fraction ([2]; 50 nM)	surviving fraction ([2]; 100 nM)	surviving fraction ([2]; 500 nM)	surviving fraction ([2]; 1000 nM)
COLO320DM LARGE INTESTINE	1.17 ± 0.07	1.21 ± 0.051	1.13 ± 0.081	1.1 ± 0.026	1.14 ± 0.085	1.2 ± 0.1	1.05 ± 0.14	1.06 ± 0.094	0.981 ± 0.051	1.01 ± 0.063	0.994 ± 0.087	1.03 ± 0.17	0.708 ± 0.059	0.528 ± 0.057	0.231 ± 0.013	0.201 ± 0.012
SG43 HEADNECK	1.36 ± 0.4	1.21 ± 0.45	0.814 ± 0.26	0.825 ± 0.2	0.649 ± 0.17	0.406 ± 0.034	0.264 ± 0.033	0.21 ± 0.043	1.18 ± 0.4	1.02 ± 0.032	0.744 ± 0.088	0.81 ± 0.15	0.783 ± 0.052	0.705 ± 0.084	0.159 ± 0.058	0.0523 ± 0.0084
H23 LUNG	1.01 ± 0.07	0.997 ± 0.032	0.989 ± 0.014	0.918 ± 0.03	0.603 ± 0.075	0.458 ± 0.053	0.356 ± 0.05	0.346 ± 0.0093	0.78 ± 0.053	0.822 ± 0.056	0.125 ± 0.014	0.113 ± 0.003	0.0233 ± 0.0021	0.02 ± 0.0017	0.0163 ± 0.0011	0.0227 ± 0.0015
A549 LUNG	1.05 ± 0.043	1.05 ± 0.024	1.07 ± 0.04	1.02 ± 0.013	1.05 ± 0.033	1.05 ± 0.051	1.05 ± 0.047	1.03 ± 0.037	0.977 ± 0.029	1.01 ± 0.034	0.971 ± 0.021	0.98 ± 0.021	0.191 ± 0.005	0.12 ± 0.0047	0.024	0.028
JIMT1 BREAST	1.02 ± 0.051	1.02 ± 0.016	1.03 ± 0.028	1.02 ± 0.022	1.06 ± 0.027	1.03 ± 0.046	0.811 ± 0.043	0.773 ± 0.047	0.971 ± 0.033	0.992 ± 0.021	0.888 ± 0.033	0.543 ± 0.056	0.0545 ± 0.0027	0.0323 ± 0.0027	0.0275 ± 0.0013	0.0318 ± 0.0055
RDES SOFT TISSUE	1.07 ± 0.13	1.06 ± 0.15	1.05 ± 0.058	1.17 ± 0.079	1.03 ± 0.26	1.22 ± 0.12	1.16 ± 0.19	1.2 ± 0.14	1.44 ± 0.073	1.58 ± 0.18	1.65 ± 0.19	0.622 ± 0.052	0.0673 ± 0.0035	0.0373 ± 0.0015	0.036 ± 0.002	0.0367 ± 0.0021
SCC90 HEADNECK	1.15 ± 0.1	1.06 ± 0.15	1.03 ± 0.023	0.85 ± 0.051	0.804 ± 0.019	0.651 ± 0.057	0.474 ± 0.044	0.465 ± 0.054	0.914 ± 0.097	0.937 ± 0.021	1.08 ± 0.1	1.1 ± 0.037	0.676 ± 0.085	0.276 ± 0.039	0.0483 ± 0.0067	0.0363 ± 0.0031
ASKA SYNOVIAL	1.13 ± 0.052	1.11 ± 0.06	1.05 ± 0.085	1.16 ± 0.051	1.19 ± 0.077	1.16 ± 0.073	1.08 ± 0.053	1.1 ± 0.058	0.87 ± 0.054	0.924 ± 0.094	0.719 ± 0.039	0.375 ± 0.017	0.227 ± 0.017	0.195 ± 0.017	0.194 ± 0.011	0.243 ± 0.017
C33A CERVIX	0.925 ± 0.067	1.01 ± 0.063	1.01 ± 0.018	0.969 ± 0.049	0.91 ± 0.052	0.973 ± 0.02	0.551 ± 0.054	0.457 ± 0.058	0.816 ± 0.047	0.325 ± 0.029	0.057 ± 0.032	0.031 ± 0.0062	0.0213 ± 0.00058	0.0393 ± 0.041	0.0193 ± 0.0076	0.0353 ± 0.015
CASKI CERVIX	0.956 ± 0.025	0.929 ± 0.096	0.851 ± 0.032	0.815 ± 0.042	0.556 ± 0.015	0.471 ± 0.011	0.308 ± 0.018	0.213 ± 0.0095	0.914 ± 0.052	0.93 ± 0.07	0.796 ± 0.056	0.538 ± 0.046	0.063 ± 0.009	0.0337 ± 0.0011	0.0223 ± 0.0015	0.0267 ± 0.0015
